# “And” between values parts separate entries of the source, which are not always exact repeats. Equal entries are not always repeated. Where two headings read alike, the source gives them in different places.
# Legend:
# [1] = system: Colletotrichum orbiculare; format: cell-based; parameters: key to Plate antimicrobial activity test Colletotrichum orbiculare, level: a case where hyphae extended to the entire well and no antimicrobial activity was found is defined as “level 0,”; a case where hyphae extended to less than a half of the well and thus the peptide inhibited the growth of the hyphae is defined as “level 1,”; a case where ungerminated spores were present and the peptide partially inhibited the germination is defined as “level 2,”; a case where all spores were ungerminated and the peptide completely inhibited the germination is defined as “level 3.”; settings: 25° C. for 1 day or 2 days, microscopic observation
# [2] = system: Colletotrichum destructivum; assay: Colletotrichum destructivum leaf inoculation test (Chinese cabbage leaf); format: in vivo; settings: Chinese cabbage leaf, 25° C. for 4 days, lesions by visual inspection, symbols ◯/Δ/X not defined
# Procedure: In the present example, a suspension comprising Colletotrichum destructivum and a peptide to be tested was dropped on a plant leaf, and lesions were then observed by visual inspection to evaluate the antimicrobial activity of the tested peptide. First, the pores of Colletotrichum destructivum were suspended in water to result in a spore concentration of 5×10^5 spores/ml, so as to prepare a water suspension of spores. Subsequently, a peptide to be tested (TsORF6-1) was added to the water suspension of spores, so that the final concentration of the peptide to be tested became 0 μM, 1 μM, 10 μM or 100 μM. Thereafter, 10 μl each of the water suspension of spores containing the peptide to be tested was dropped on the front side and the back side of the leaf of Chinese cabbage (variety name: “Kigokoro 85”). In this condition, incubation was carried out at 25° C. for 4 days. Thereafter, the front and back sides of the leaf were observed by visual inspection.
# Botrytis cinerea = format: cell-based; parameters: key to Plate antimicrobial activity test Botrytis cinerea, level: a case where hyphae extended to the entire well and no antimicrobial activity was found is defined as “level 0,”; a case where hyphae extended to less than a half of the well and thus the peptide inhibited the growth of the hyphae is defined as “level 1,”; a case where ungerminated spores were present and the peptide partially inhibited the germination is defined as “level 2,”; a case where all spores were ungerminated and the peptide completely inhibited the germination is defined as “level 3.”; settings: 25° C. for 1 day or 2 days, microscopic observation
# Pyricularia oryzae = format: cell-based; parameters: key to Plate antimicrobial activity test Pyricularia oryzae, level: a case where hyphae extended to the entire well and no antimicrobial activity was found is defined as “level 0,”; a case where hyphae extended to less than a half of the well and thus the peptide inhibited the growth of the hyphae is defined as “level 1,”; a case where ungerminated spores were present and the peptide partially inhibited the germination is defined as “level 2,”; a case where all spores were ungerminated and the peptide completely inhibited the germination is defined as “level 3.”; settings: 25° C. for 1 day or 2 days, microscopic observation
# Fusarium oxysporum = format: cell-based; parameters: key to Plate antimicrobial activity test Fusarium oxysporum, level: a case where hyphae extended to the entire well and no antimicrobial activity was found is defined as “level 0,”; a case where hyphae extended to less than a half of the well and thus the peptide inhibited the growth of the hyphae is defined as “level 1,”; a case where ungerminated spores were present and the peptide partially inhibited the germination is defined as “level 2,”; a case where all spores were ungerminated and the peptide completely inhibited the germination is defined as “level 3.”
# [3] = system: Colletotrichum destructivum; format: cell-based; parameters: key to Plate antimicrobial activity test Colletotrichum destructivum, level: a case where hyphae extended to the entire well and no antimicrobial activity was found is defined as “level 0,”; a case where hyphae extended to less than a half of the well and thus the peptide inhibited the growth of the hyphae is defined as “level 1,”; a case where ungerminated spores were present and the peptide partially inhibited the germination is defined as “level 2,”; a case where all spores were ungerminated and the peptide completely inhibited the germination is defined as “level 3.”; settings: 25° C. for 1 day or 2 days, microscopic observation
# [4] = system: plant pathogenic filamentous fungi; format: cell-based; settings: Table 3
Substance,"Plate antimicrobial activity test Colletotrichum orbiculare, level ([1]; peptide 1 μM)","Plate antimicrobial activity test Colletotrichum orbiculare, level ([1]; peptide 10 μM)","Plate antimicrobial activity test Colletotrichum orbiculare, level ([1]; peptide 100 μM)",Leaf inoculation test Chinese cabbage/Colletotrichum destructivum ([2]; peptide 100 μM),"Plate antimicrobial activity test Botrytis cinerea, level (Botrytis cinerea; peptide 1 μM)","Plate antimicrobial activity test Botrytis cinerea, level (Botrytis cinerea; peptide 10 μM)","Plate antimicrobial activity test Botrytis cinerea, level (Botrytis cinerea; peptide 100 μM)","Plate antimicrobial activity test Pyricularia oryzae, level (Pyricularia oryzae; peptide 1 μM)","Plate antimicrobial activity test Pyricularia oryzae, level (Pyricularia oryzae; peptide 10 μM)","Plate antimicrobial activity test Pyricularia oryzae, level (Pyricularia oryzae; peptide 100 μM)","Plate antimicrobial activity test Fusarium oxysporum, level (Fusarium oxysporum)","Plate antimicrobial activity test Colletotrichum destructivum, level ([3]; peptide 1 μM)","Plate antimicrobial activity test Colletotrichum destructivum, level ([3]; peptide 10 μM)","Plate antimicrobial activity test Colletotrichum destructivum, level ([3]; peptide 100 μM)",Leaf inoculation test Chinese cabbage/Colletotrichum destructivum ([2]; peptide 10 μM),"germination inhibitory activity against plant pathogenic filamentous fungi, result in words [4]"
"KKVAK (listed as Solanum lycopersicum) [TsORF6-1-5aa-14, partial peptide of TsORF6-1, 5 amino acid residues]",0,0,0,Δ,0,0,0,0,0,0,0,0,0,0,,
"MKVMIVVK (listed as Solanum lycopersicum) [TsORF6-1-8aa-1, partial peptide of TsORF6-1, 8 amino acid residues]",0,0,3,◯,0,0,2,0,0,3,3 and 0,0,0,3,Δ,extremely excellent germination inhibitory activity
"VMIVVKTK (listed as Solanum lycopersicum) [TsORF6-1-8aa-3, partial peptide of TsORF6-1, 8 amino acid residues]",0,0,3,◯,0,0,3,0,0,3,3 and 0,0,0,3,◯,extremely excellent germination inhibitory activity
"VAKMM (listed as Solanum lycopersicum) [TsORF6-1-5aa-16, partial peptide of TsORF6-1, 5 amino acid residues]",0,0,0,◯,0,0,0,0,0,0,0,0,0,0,,extremely excellent germination inhibitory activity
"KVAKM (listed as Solanum lycopersicum) [TsORF6-1-5aa-15, partial peptide of TsORF6-1, 5 amino acid residues]",0,0,0,Δ,0,0,0,0,0,0,0,0,0,0,,
"KVKNK (listed as Solanum lycopersicum) [TsORF6-1-5aa-10, partial peptide of TsORF6-1, 5 amino acid residues]",0,0,0,Δ,0,0,0,0,0,0,0 and 1,0,0,0,,
